Here are results for eleven compounds from US10793568B2, “Hormone receptor modulators for treating metabolic conditions and disorders” (ARDELYX, INC., priority 2016, dated 2020).

The EC50 is the concentration needed to bring the measured effect to its halfway point. Low readings indicate greater potency, high ones weaker potency. The term pEC50 denotes −log10 of the EC50, conventionally taken in molar units. High values mean a low EC50, low ones a high EC50.

Experiment [1] deals with DSS colitis mice. Description: Restoration of epithelial barrier integrity in DSS colitis. To be noted: 30 mg/kg once daily oral gavage. It is filed as in vivo, C57Bl/6 mice. Here is the method:
Colonic histopathology was assessed in mice administered dextran sodium sulfate (DSS) to assess the ability of selected example compounds to restore epithelial barrier integrity in a model of colitis presenting with epithelial erosions. Approximately seven-week old, female, C57Bl/6 mice were purchased from Envigo (Livermore, Calif.), were housed 6 per cage and acclimated for at least 2 weeks before study initiation. Animals were fed standard laboratory rodent chow Harlan Teklad Global 2018 (Maddison, Wis.). Mice had ad libitum access to food and water for the duration of the study and were maintained in a temperature and humidity controlled room on a standard light/dark cycle of 6 AM to 6 PM. DSS was prepared at 1.5% (MW 35-50 kDa, Lot # M7191, MP Biomedical) in filtered drinking water and provided to the mice from Day 0 to Day 7 (n=12/group). The DSS water was replaced once during the study on Day 3 or 4 with fresh DSS water. One cohort of mice (n=6) was provided drinking water without DSS and severed as the non-diseased control group. Vehicle (1% methylcellulose in water, 10 mL/kg) or varying doses of test compound were administered once daily by oral gavage beginning on Day −3 through Day 8. FXR agonist compounds of the invention, FXR1 and FXR2, were tested at doses of 0.3 and 1 mg/kg and compared to known FXR agonist obeticholic acid (OCA) administered at 30 mg/kg. Body weight and food and water intake were measured daily from the initiation of DSS administration. Disease activity index (DAI) scoring was performed on Day 9 prior to necropsy. Stool consistency, blood in stool, incidence of rectal prolapse, and body condition was assessed according to the scoring system in Table 25 and summed to a total DAI score:
Following DAI scoring on Day 9 and under isoflurane anesthesia mice were exsanguinated via cardiac puncture and euthanized by thoracotomy, followed by cervical dislocation. The entire colon (from the cecum to the anus) was removed, and the length recorded. The luminal contents were removed by flushing with ice-cold PBS using a blunt needle attached to a syringe and the colon was blotted dry and weighed. For each treatment group, half of the distal colon samples were prepared for cytokine analysis and half were prepared for histological evaluation. For cytokine measurement, the distal ⅓ of the colon was excised and weighed, placed into 5 mL Eppendorf tubes, frozen on dry ice and stored at −80° C., until analysis. Inflammatory cytokines were measured in colon tissue using a V-Plex custom kit (Proinflammatory Panel 1 (mouse), Mesoscale Technology). For histology, the colon was rolled by grasping the distal end and rotating to generate a spiral with a third dimension. The colon was then placed in a tissue cassette, and into a jar of 10/o buffered formalin phosphate at room temperature for at least 24 hours to ensure tissue fixation, at which point the formalin was replaced with 70% ethanol. […] Three levels of the distal colon were assigned a colitis score and the average colitis score for each animal was derived by summing the colitis scores for the three levels of colon evaluated and dividing the sum by three. The average colitis score for each treatment group was derived by summing the colitis scores for all levels of colon evaluated in the group and dividing the sum by the total number of levels of colon evaluated for that group. The presence or absence of mucosal defects (erosions or ulcerations) was also recorded for each level of colon. […]

For experiment [2], the target named is ligand binding domain of human FXR (Homo sapiens (Human), UniProt Q96RI1). Description: FXR ligand binding assay (LanthaScreen TR-FRET, SRC2-2 peptide recruitment). To be noted: for Emax: extent of activation relative to GW4064, read-out: % Efficacy; for pEC50: -log EC50, concentration required to produce 50% activation. On the technique in general: In TR-FRET formats the signal depends on donor and acceptor labels being close together.

In experiment [3] the target is human Farnesoid X receptor ligand-binding domain/Gal4 DNA binding domain chimera (Homo sapiens (Human), UniProt Q96RI1). The experiment can be described thus: Cell-based assay of FXR activation (FXR-UAS-bla HEK 293T beta-lactamase reporter). Particulars: cellular FXR beta-lactamase reporter assay; for Emax: HEK-293T, extent of activation relative to GW4064, read-out: % Efficacy; for EC50: FXR-UAS-bla HEK 293T cells, 16 h, pEC50 = -log EC50. The gist of the method: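 Readout is cleavage of the CCF4 FRET substrate (409 nm excitation, blue 447 nm signal) by beta-lactamase, expressed under UAS control after a Gal4–human FXR LBD chimera is activated in HEK 293T cells. Compounds were added as 3-fold dilutions for 16 h at 37 °C in 2% charcoal-stripped FBS medium. Curves were fit to a 3-parameter logistic equation to give pEC50, with % activation relative to GW4064.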
For orientation: A reporter such as luciferase makes a cellular process visible.

Chain of ligand binding domain of human FXR (Q96RI1 262-486): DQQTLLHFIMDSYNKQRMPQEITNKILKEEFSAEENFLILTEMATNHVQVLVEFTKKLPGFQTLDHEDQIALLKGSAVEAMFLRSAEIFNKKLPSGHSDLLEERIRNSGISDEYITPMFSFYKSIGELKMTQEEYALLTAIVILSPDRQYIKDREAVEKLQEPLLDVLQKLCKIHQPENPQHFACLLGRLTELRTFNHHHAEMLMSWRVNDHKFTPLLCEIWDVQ
Chain of human Farnesoid X receptor ligand-binding domain/Gal4 DNA binding domain chimera (Q96RI1 262-486, change not shown): as the sequence (Q96RI1 262-486) above
Chain of human Farnesoid X receptor ligand-binding domain/Gal4 DNA binding domain chimera (P04386 1-147 partner): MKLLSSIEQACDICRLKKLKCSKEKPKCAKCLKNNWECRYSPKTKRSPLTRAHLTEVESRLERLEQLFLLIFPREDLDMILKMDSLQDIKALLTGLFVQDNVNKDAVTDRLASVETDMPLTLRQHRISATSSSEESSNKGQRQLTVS

Consider `CC[C@H]1[C@@H](O)[C@@H]2[C@H](CC[C@]3(C)[C@@H]([C@H](C)CCC(=O)O)CC[C@@H]23)[C@@]2(C)CC[C@@H](O)C[C@@H]12` [OCA, obeticholic acid], for which the DAI score result in experiment [1] (Day 9, vs DSS vehicle) is on record as “did not significantly affect body weight nor DAI score”. In addition, in experiment [1] (vs DSS vehicle), the “body weight (DSS-induced reduction)” value is recorded as “did not significantly affect body weight”; the “epithelial erosions (mucosal defects) observed histologically” value is reported as “did not reduce the number of epithelial erosions”; the histology colitis score result is recorded as “did not significantly affect histology colitis score”; the “inflammatory cytokines IL-6, IL-1β, TNFα, IFNγ and KC/Gro in the colon” value was “only significantly reduced the levels of IL-1β, TNFα and KC/Gro”.
In the case of `CC(CC(=O)O)c1ccc(N2C[C@@H]3C[C@H]2C[C@H]3OCc2c(-c3c(Cl)cccc3Cl)noc2C2CC2)c(F)c1` (stereo partly drawn) [Compound I-152, 3-{4-[(1S,4S,5R)-5-{[5-cyclopropyl-3-(2,6-dichlorophenyl)-1,2-oxazol-4-yl]methoxy}-2-azabicyclo[2.2.1]heptan-2-yl]-3-fluorophenyl}butanoic Acid], the results for the Emax in experiment [2] and in experiment [3] were 132% and 105%, respectively. For the same compound, the EC50 in experiment [3] is 5.01 nM.
As for `O=C(O)c1ccc(N2C(=O)[C@@H]3C[C@H]2C[C@H]3OCc2c(-c3c(F)cccc3C3CC3)noc2C2CC2)cc1` [Compound I-311, 4-[(1S,4R,5R)-5-{[5-cyclopropyl-3-(2-cyclopropyl-6-fluorophenyl)-1,2-oxazol-4-yl]methoxy}-3-oxo-2-azabicyclo[2.2.1]heptan-2-yl]benzoic Acid], in experiment [2], the pEC50 stood at 7.8 and the Emax worked out at 148%. For the same compound, in experiment [3], the Emax worked out at 105% and the EC50 is 3.98 nM.
For `O=C(O)c1cc(C(F)(F)F)c2nc(N3C[C@@H]4C[C@H]3C[C@H]4OC(=O)c3c(-c4c(Cl)cccc4Cl)noc3C3CC3)sc2c1` [Compound I-5, 2-[(1S,4S,5R)-5-[5-cyclopropyl-3-(2,6-dichlorophenyl)-1,2-oxazole-4-carbonyloxy]-2-azabicyclo[2.2.1]heptan-2-yl]-4-(trifluoromethyl)-1,3-benzothiazole-6-carboxylic acid], in that order: 7.2, 139%, 102% and 39.8 nM.
`O=C(O)c1cc(F)c2nc(N3C[C@@H]4C[C@H]3C[C@H]4OCc3c(-c4ccc(O)cc4)noc3C3CC3)sc2c1` [Compound I-293, 2-((1S,4S,5R)-5-((5-cyclopropyl-3-(4-hydroxyphenyl)isoxazol-4-yl)methoxy)-2-azabicyclo[2.2.1]heptan-2-yl)-4-fluorobenzo[d]thiazole-6-carboxylic acid]: the pEC50 in experiment [2] is given as above 4.5. The EC50 in experiment [3] is below 31.6 nM.
As for `Cc1cc(C(=O)O)cc2sc(N3C[C@@H]4C[C@H]3C[C@H]4OCc3c(-c4c(F)cccc4Cl)noc3C3CC3)nc12` [Compound I-262, 2-[(1S,4S,5R)-5-{[3-(2-chloro-6-fluorophenyl)-5-cyclopropyl-1,2-oxazol-4-yl]methoxy}-2-azabicyclo[2.2.1]heptan-2-yl]-4-methyl-1,3-benzothiazole-6-carboxylic Acid], in experiment [2], the pEC50 came out at 8.6 and the Emax amounted to 144%. Also, in experiment [3], the Emax was 114% and a half-maximal response (EC50) required 2 nM.
In the case of `O=C(O)c1cc(F)c2nc(N3C[C@H]4C[C@@H]3C[C@@H]4OCc3c(-c4c(Cl)cccc4Cl)noc3C3CC3)sc2c1` [Compound I-39, 2-[(1R,4R,5S)-5-{[5-cyclopropyl-3-(2,6-dichlorophenyl)-1,2-oxazol-4-yl]methoxy}-2-azabicyclo[2.2.1]heptan-2-yl]-4-fluoro-1,3-benzothiazole-6-carboxylic Acid], in experiment [2], the pEC50 was 7.8 and the Emax is 96%. Besides, in experiment [3], the Emax worked out at 105% and the EC50 is 50.1 nM.
As to `O=C(O)c1ccc(N2C(=O)[C@@H]3C[C@H]2C[C@H]3OCc2c(-c3c(Cl)cccc3Cl)noc2C2CC2)cc1C1CC1` [Compound I-319, 2-cyclopropyl-4-[(1S,4R,5R)-5-{[5-cyclopropyl-3-(2,6-dichlorophenyl)-1,2-oxazol-4-yl]methoxy}-3-oxo-2-azabicyclo[2.2.1]heptan-2-yl]benzoic Acid], in experiment [2], the pEC50 came to 7.4 and the Emax was determined as 118%. Moreover, in experiment [3], the Emax was 113% and the EC50 was 10 nM.
In the same order, the values of `O=C(O)c1cc(O[C@H]2CCOC2)c2nc(N3C[C@@H]4C[C@H]3C[C@H]4OCc3c(-c4c(Cl)cccc4Cl)noc3C3CC3)sc2c1` [Compound I-260, 2-[(1S,4S,5R)-5-{[5-cyclopropyl-3-(2,6-dichlorophenyl)-1,2-oxazol-4-yl]methoxy}-2-azabicyclo[2.2.1]heptan-2-yl]-4-[(3S)-oxolan-3-yloxy]-1,3-benzothiazole-6-carboxylic Acid] are 8.8, 148%, 103% and 0.398 nM.
Regarding `CN(CC(=O)O)S(=O)(=O)c1ccc(N2C[C@@H]3C[C@H]2C[C@H]3OCc2c(-c3c(Cl)cccc3Cl)noc2C2CC2)cc1` [Compound I-143, 2-{N-methyl4-[(1S,4S,5R)-5-{[5-cyclopropyl-3-(2,6-dichlorophenyl)-1,2-oxazol-4-yl]methoxy}-2-azabicyclo[2.2.1]heptan-2-yl]benzenesulfonamido}acetic Acid], in experiment [2], the pEC50 is 8 and the Emax is 132%. Further, in experiment [3], the Emax was 105% and the EC50 is 1 nM.
In the case of `O=C(O)c1ccc(N2C[C@@H]3C[C@H]2C[C@H]3OCc2c(-c3c(F)cccc3Cl)noc2C2CC2)c(F)c1` [Compound I-119, 4-[(1S,4S,5R)-5-{[3-(2-chloro-6-fluorophenyl)-5-cyclopropyl-1,2-oxazol-4-yl]methoxy}-2-azabicyclo[2.2.1]heptan-2-yl]-3-fluorobenzoic Acid], in experiment [2], the pEC50 is 8.7 and the Emax came out at 145%. Besides, in experiment [3], the Emax came to 104% and the response was half-maximal at 0.631 nM (EC50).
